The source made the active and inactive calls. The calls are words filed in the database; no cut-off is given here.
What was measured:
Plasmodium falciparum [1] = test: Antimalarial activity as reduced parasitaemia after 72 hrs against chloroquine-resistant Plasmodium falciparum Dd2 in human erythrocytes by DAPI stain; type: functional, organism-based; settings: Dd2, 72 h
Heme = test: Inhibition of heme crystallization by parasite-independent assay; type: functional
Plasmodium falciparum [2] = test: Antimalarial activity as reduced parasitaemia after 72 hrs against chloroquine-sensitive Plasmodium falciparum 3D7 in human erythrocytes by DAPI stain; type: functional, organism-based; settings: 3D7, 72 h
Plasmodium falciparum [3] = test: Antimalarial activity against Plasmodium falciparum K1; type: functional, organism-based
Plasmodium falciparum [4] = test: Antimalarial activity against Plasmodium falciparum NF54; type: functional, organism-based
Plasmodium falciparum [5] = test: Antimalarial activity as reduced parasitaemia after 72 hrs against chloroquine-resistant Plasmodium falciparum 106/1 in human erythrocytes by DAPI stain; type: functional, organism-based; settings: 106/1, 72 h
Plasmodium falciparum [6] = test: Antimalarial activity as reduced parasitaemia after 72 hrs against chloroquine-resistant Plasmodium falciparum 7G8 in human erythrocytes by DAPI stain; type: functional, organism-based; settings: 7G8, 72 h
Plasmodium falciparum [7] = test: Antimalarial activity as reduced parasitaemia after 72 hrs against chloroquine-resistant Plasmodium falciparum FCB in human erythrocytes by DAPI stain; type: functional, organism-based

| SMILES | EC50 (Plasmodium falciparum [1]) [nM] | Activity (Heme) | EC50 (Plasmodium falciparum [2]) [nM] | EC50 (Plasmodium falciparum [3]) [nM] | EC50 (Plasmodium falciparum [4]) [nM] | EC50 (Plasmodium falciparum [5]) [nM] | EC50 (Plasmodium falciparum [6]) [nM] | EC50 (Plasmodium falciparum [7]) [nM] |
| --- | --- | --- | --- | --- | --- | --- | --- | --- |
| CC1CCCC2(C1)CC(C)(CCOCc1ccccc1)OO2 (mixture of isomers) | 151 | inactive | 92 | – | – | – | – | – |
| CC1(CCOCc2ccccc2)CC2(CCCCC2)OO1 (stereo unspecified) | 146 | inactive | 141 | – | – | – | – | – |
| CC(C)(CO)CC1(C)C[C@]2(CC[C@H](C)CC2)OO1 (stereo partly specified) | 897 | – | 332 | – | – | – | – | – |
| CC1CCCC2(C1)CC(C)(CCO)OO2 (mixture of isomers) | 149 | inactive | 241 | – | – | – | – | – |
| CC1CCC2(CC1)CC(C)(CCOCc1ccccc1)OO2 (mixture of isomers) | 59 | inactive | 545 | – | – | – | – | – |
| CC(C)(N)CNC(=O)CC1(C)CC2(CCCCC2)OO1 (stereo unspecified) | 108 | inactive | 61 | – | – | – | – | – |
| COCCC1(C)CC2(CCCC(C)C2)OO1 (mixture of isomers) | 62 | inactive | 69 | – | – | – | – | – |
| C1CCC2(CC1)CC1(OO2)C2CC3CC(C2)CC1C3 (stereo unspecified) | – | inactive | – | > 2000 | > 2000 | – | – | – |
| CC1(CCOCc2ccccc2)CC2(CCC(C(C)(C)C)CC2)OO1 (mixture of isomers) | 74 | inactive | 86 | – | – | – | – | – |
| NCCNc1ccnc2cc(Cl)ccc12 | 155 | inactive | 57 | – | – | – | – | – |
| CC1(CC(=O)NCc2ccc(-c3ccccc3)cc2)CC2(CCCCC2)OO1 (stereo unspecified) | 77 | inactive | 100 | – | – | – | – | – |
| CC(=O)OCCC1(C)CC2(CCCC(C)C2)OO1 (mixture of isomers) | 114 | inactive | 109 | – | – | – | – | – |
| CC1(CC(=O)NCC2C3CC4CC(C3)CC2C4)CC2(CCCCC2)OO1 (stereo unspecified) | 57 | inactive | 81 | – | – | – | – | – |
| CCNC(=O)CC1(C)CC2(CCCCC2)OO1 (stereo unspecified) | 99 | – | 485 | – | – | 142 | 83 | 356 |
| CC1CCCC2(C1)CC(C)(CC(=O)O)OO2 (mixture of isomers) | > 1000 | – | > 1000 | – | – | – | – | – |
| C1CCC2(CC1)OOC1(O2)C2CC3CC(C2)CC1C3 (stereo unspecified) | – | – | – | 3.67 | 5.3 | – | – | – |
| C1CCC2(CC1)CC1(CCCCC1)OO2 | – | – | – | 195 | 523 | – | – | – |
| C[C@@H]1CC[C@H]2[C@@H](C)C(=O)O[C@@H]3O[C@@]4(C)CC[C@@H]1[C@]32OO4 [ARTEMISININ] | 4 | – | 4 | – | – | 13 | 48 | 8 |
| CCN(CC)CCCC(C)Nc1ccnc2cc(Cl)ccc12 (stereo unspecified) [CHLOROQUINE] | 66 | – | 7 | – | – | 14 | 46 | 52 |
| O=C(CN1CCC2(CCCCC2)C1)NCCNc1ccnc2cc(Cl)ccc12 | 78 | inactive | 69 | – | – | 53 | 91 | 80 |
| CC1(CC(=O)NCCNc2ccnc3cc(Cl)ccc23)CC2(CCCCC2)OO1 (stereo unspecified) | 6 | inactive | 5 | – | – | 22 | 8 | 16 |

From ChEMBL document CHEMBL1152190, “Synthesis of spiro-1,2-dioxolanes and their activity against Plasmodium falciparum” (Bioorg Med Chem Lett, 2008)
